Data set [1] is described as follows: Drug level in mouse hepatic microsomes treated with platensimycin at 1 uM up to 60 mins in presence of NADPH by LC-MS/MS analysis. Type of data set: ADME, Liver, Microsome. Conditions: 1 h; call rule not given here.
Data set [2] is described as follows: Drug level in mouse hepatic microsomes treated with platensimycin at 1 uM up to 60 mins in absence of NADPH by LC-MS/MS analysis. The data set is classed as ADME, Liver, Microsome. Conditions: 1 h.
The subject of a further data set is Staphylococcus aureus. Put plainly: Antibacterial activity against Staphylococcus aureus ATCC 25923 after 18 hrs by broth dilution method. Type of data set: functional. The conditions noted are these: ATCC 25923, 18 h. (Broth dilution looks for growth in wells or tubes with falling amounts of substance.)
For a further data set, the system named is Micrococcus luteus. Kind of data set: Antibacterial activity against Micrococcus luteus ATCC 9431 after 18 hrs by broth dilution method. Conditions: ATCC 9431, 18 h. The data set is classed as functional.
The subject of data set [3] is Plasma. Put plainly: Drug uptake in C57Bl/6 mouse plasma at 10 mg/kg, iv administered as single dose measured after 60 mins by LC-MS/MS analysis. The conditions noted are these: in vivo, 1 h. Type of data set: ADME, organism-based.
Data set [4] deals with Liver. Kind of data set: Drug uptake in C57Bl/6 mouse liver at 10 mg/kg, iv administered as single dose measured after 60 mins by LC-MS/MS analysis. The data set is classed as ADME, organism-based. The conditions noted are these: in vivo, 1 h.
Data set [5] has as its system Kidney. Put plainly: Drug uptake in C57Bl/6 mouse kidney at 10 mg/kg, iv administered as single dose measured after 60 mins by LC-MS/MS analysis. Type of data set: ADME, organism-based. Conditions: in vivo, 1 h.
Data set [6] in a line: Drug level in C57Bl/6 mouse urine at 10 mg/kg, iv administered as single dose measured after 60 mins by LC-MS/MS analysis. Conditions: mouse, in vivo, 1 h. Type of data set: ADME, organism-based.
For data set [7], the system named is Plasma. Put plainly: In vivo stability in C57Bl/6 mouse plasma assessed as compound hydrolysis at 10 mg/kg, iv administered as single dose measured after 60 mins by LC-MS/MS analysis. The data set is classed as ADME, organism-based. Conditions: 1 h.
Data set [8] concerns Liver. Kind of data set: In vivo stability in C57Bl/6 mouse liver assessed as compound hydrolysis at 10 mg/kg, iv administered as single dose measured after 60 mins by LC-MS/MS analysis. Conditions: 1 h. Type of data set: ADME, organism-based.
For data set [9], the system named is Kidney. Put plainly: In vivo stability in C57Bl/6 mouse kidney assessed as compound hydrolysis at 10 mg/kg, iv administered as single dose measured after 60 mins by LC-MS/MS analysis. The data set is classed as ADME, organism-based. Conditions: 1 h.
The nature of data set [10]: In vivo stability in C57Bl/6 mouse urine assessed as compound hydrolysis at 10 mg/kg, iv administered as single dose measured after 60 mins by LC-MS/MS analysis. The data set is classed as ADME, organism-based. The conditions noted are these: 1 h.
Data set [11] can be described thus: Elimination half life in C57Bl/6 mouse at 3 mg/kg, iv administered as single dose by LC-MS/MS analysis. The data set is classed as ADME, organism-based. Conditions: in vivo, read-out: beta t1/2 (converted).
The nature of data set [12]: Elimination half life in C57Bl/6 mouse at 10 mg/kg, po administered as single dose via gavage by LC-MS/MS analysis. The data set is classed as ADME, organism-based. The conditions noted are these: in vivo, read-out: beta t1/2 (converted).
The nature of data set [13]: Cmax in C57Bl/6 mouse at 3 mg/kg, iv administered as single dose by LC-MS/MS analysis. The conditions noted are these: in vivo. More on the design: dose 3 mg/kg, route intravenous. Type of data set: ADME, organism-based.
Data set [14] is described as follows: Cmax in C57Bl/6 mouse at 10 mg/kg, po administered as single dose via gavage by LC-MS/MS analysis. More on the design: dose 10 mg/kg, route oral. The conditions noted are these: in vivo. Type of data set: ADME, organism-based.
For data set [15], the system named is Mus musculus. Put plainly: AUC (0 to 8 hrs) in C57Bl/6 mouse at 3 mg/kg, iv administered as single dose by LC-MS/MS analysis. More on the design: dose 3 mg/kg, time < 8 hr, route intravenous. The conditions noted are these: in vivo. The data set is classed as ADME, organism-based.
The test system of data set [16] is Mus musculus. Put plainly: AUC (0 to 8 hrs) in C57Bl/6 mouse at 10 mg/kg, po administered as single dose via gavage by LC-MS/MS analysis. Type of data set: ADME, organism-based. More on the design: time < 8 hr, dose 10 mg/kg, route oral. Conditions: in vivo.
Data set [17] is described as follows: Observed clearance in C57Bl/6 mouse at 3 mg/kg, iv administered as single dose by LC-MS/MS analysis. The data set is classed as ADME, organism-based. Conditions: in vivo.
Data set [18] in a line: Volume of distribution in C57Bl/6 mouse at 3 mg/kg, iv administered as single dose by LC-MS/MS analysis. The data set is classed as ADME, organism-based. Conditions: in vivo.
Data set [19] in a line: Oral bioavailability in C57Bl/6 mouse at 10 mg/kg administered as single dose via gavage by LC-MS/MS analysis. The conditions noted are these: in vivo. The data set is classed as ADME, organism-based.
For data set [20], the system named is Lung. Put plainly: Drug uptake in C57Bl/6 mouse lung at 10 mg/kg, iv administered as single dose measured after 60 mins by LC-MS/MS analysis. The data set is classed as ADME, organism-based. Conditions: in vivo, 1 h.
Data set [21] is described as follows: Drug uptake in C57Bl/6 mouse muscle at 10 mg/kg, iv administered as single dose measured after 60 mins by LC-MS/MS analysis. Conditions: in vivo, 1 h. Type of data set: ADME, organism-based, Muscle tissue.
Data set [22] is described as follows: Drug uptake in C57Bl/6 mouse adipose tissue at 10 mg/kg, iv administered as single dose measured after 60 mins by LC-MS/MS analysis. The conditions noted are these: in vivo, 1 h. Type of data set: ADME, organism-based.
The nature of data set [23]: Ratio of drug level in C57Bl/6 mouse liver to plasma at 10 mg/kg, iv administered as single dose measured after 60 mins by LC-MS/MS analysis. Type of data set: ADME, organism-based.
Data set [24] in a line: Ratio of drug level in C57Bl/6 mouse lung to plasma at 10 mg/kg, iv administered as single dose measured after 60 mins by LC-MS/MS analysis. The data set is classed as ADME, organism-based.
Data set [25] can be described thus: Ratio of drug level in C57Bl/6 mouse kidney to plasma at 10 mg/kg, iv administered as single dose measured after 60 mins by LC-MS/MS analysis. Type of data set: ADME, organism-based.
The nature of data set [26]: Ratio of drug level in C57Bl/6 mouse muscle to plasma at 10 mg/kg, iv administered as single dose measured after 60 mins by LC-MS/MS analysis. The data set is classed as ADME, organism-based, Muscle tissue/plasma.
For data set [27], the system named is Lung. Kind of data set: In vivo stability in C57Bl/6 mouse lung assessed as compound hydrolysis at 10 mg/kg, iv administered as single dose measured after 60 mins by LC-MS/MS analysis. Conditions: 1 h. The data set is classed as ADME, organism-based.
The nature of data set [28]: In vivo stability in C57Bl/6 mouse muscle assessed as compound hydrolysis at 10 mg/kg, iv administered as single dose measured after 60 mins by LC-MS/MS analysis. Type of data set: ADME, organism-based, Muscle tissue. The conditions noted are these: 1 h.
A short description of data set [29]: In vivo stability in C57Bl/6 mouse adipose tissue assessed as compound hydrolysis at 10 mg/kg, iv administered as single dose measured after 60 mins by LC-MS/MS analysis. Type of data set: ADME, organism-based. The conditions noted are these: 1 h.
The next data set deals with Brain. Put plainly: In vivo stability in C57Bl/6 mouse brain assessed as compound hydrolysis at 10 mg/kg, iv administered as single dose measured after 60 mins by LC-MS/MS analysis. The data set is classed as ADME, organism-based. The conditions noted are these: 1 h.

The record followed here is ChEMBL document CHEMBL3994662, “In vivo instability of platensimycin and platencin: Synthesis and biological evaluation of urea- and carbamate-platensimycin” (Bioorg Med Chem, 2017).

Converted amounts (≈) assume the structure as drawn.

By MIC is commonly meant the lowest concentration found to suppress growth. High values mean weaker potency, low ones greater potency. As a reminder, the Cmax is the maximum level reached in the sampled fluid or tissue. In general, AUC refers to the area under the concentration-time curve, a measure of exposure. Broadly, the clearance is the volume of plasma or blood freed of the substance per unit of time. High values mean a high capacity for elimination, low ones a low capacity for elimination. The term Vd denotes a proportionality between amount in the body and measured concentration, not a real space. As usually defined, the bioavailability is dose-corrected exposure relative to a reference, in per cent. The low end stands for little systemic uptake, the high end for much systemic uptake. Broadly, the Kp is the ratio of the level in a tissue or fluid to that in plasma or blood.

As for `C[C@]12C[C@@]34C=CC(=O)[C@@](C)(CCC(=O)O)[C@@H]3[C@H](C[C@@H]1C4)O2`, the Drug metabolism result in data set [1] and in data set [2] was “Metabolite_Detected” each time.

As to `COC(=O)c1ccc(O)c(NC(=O)NCC[C@]2(C)C(=O)C=C[C@]34C[C@H]5C[C@H](O[C@@]5(C)C3)[C@H]42)c1O`, the MIC in the data set on Staphylococcus aureus is more than 64 µg/mL; against Micrococcus luteus, 64 µg/mL (≈ 136 µM).

For `C[C@]12C[C@@]34C=CC(=O)[C@@](C)(CCNC(=O)Oc5c(O)ccc(C(=O)O)c5O)[C@@H]3[C@H](C[C@@H]1C4)O2`, the Drug uptake entry (in the data set with Plasma [3]; in the data set on Liver [4]; in the data set on Kidney [5]; in [6]) was “Active” throughout. Also, the MIC in the data set on Staphylococcus aureus and against Micrococcus luteus was more than 64 µg/mL each time. For the same compound, the Stability result (in the data set on Plasma [7]; with Liver [8]; in the data set on Kidney [9]; in [10]) was “Stable” in each case.

On to `C=C1C[C@@]23C=CC(=O)[C@@](C)(CCC(=O)Nc4c(O)ccc(C(=O)O)c4O)[C@@H]2C[C@@H]1CC3` [PLATENCIN], for which the half-life in data set [11] was 13.2 min; in data set [12], 78 min. Moreover, the values for the Cmax in data set [13] and in [14] were 11 µM and 4 µM, respectively. For the same compound, the figures for the AUC in the data set with Mus musculus [15] and in the data set on Mus musculus [16] were 6.8 µM·h and 2.3 µM·h, respectively. The compound also showed a clearance in [17] of 23 mL/min/kg. Also, in data set [18], the Vd was 0.46 L/kg. For the same compound, in data set [19], the bioavailability was 10%. Also, the Drug uptake result in the data set with Plasma [3] is “Active”; with Liver [4], “Active”; in the data set on Lung [20] it was “Active”; in the data set on Kidney [5] it was “Active”; in data set [21], “Active”; in data set [22], “Not Active”. The Kp at 1 h worked out at 3.8 in data set [23], 0.4 in [24], 1.4 in [25] and 0.1 in [26]. The Stability entry with Lung [27] is “Stable”; in data set [28], “Stable”; in data set [29], “Stable”; in the data set with Plasma [7] it was “Unstable”; in the data set with Liver [8] it was “Unstable”; in the data set with Kidney [9], “Unstable”. In addition, the Stability result in data set [10] was “Unstable”; in the data set with Brain it was “Stable”.
